According to BindingDB's records for doi:10.1021/jm9603274 (R. W. Johnson Pharmaceutical Research Institute, 1996):

Experiment: Inhibitory activity against thrombin induced platelet aggregation

SMILES | IC50
CN[C@H](Cc1ccccc1)C(=O)N1CCC[C@H]1C(=O)N[C@H](C=O)CCCN=C(N)N [1-(2-Methylamino-3-phenyl-propionyl)-pyrrolidine-2-carboxylic acid (1-formyl-4-guanidino-butyl)-amide] | 23 nM
CN[C@H](Cc1ccccc1)C(=O)N1CCC[C@H]1C(=O)N[C@@H](CCCN=C(N)N)C(=O)c1nc2ccccc2s1 [RWJ-50353] | 23 nM
